Experimental data reported in patent US6673938B1, “Substituted pyridine herbicides” (Syngenta Participations AG, priority 1998, dated 2004).

Tests used:
[1] = test system: Monocotyledonous and dicotyledonous test plants; test: Herbicidal action before emergence of the plants (pre-emergence action); format: in vivo; settings: evaluated after 3 weeks, nine-step scale; for pre-emergence action, Cyperus / pre-emergence action, Ipomoea / pre-emergence action, Setaria / pre-emergence action, Sinapis / pre-emergence action, Solanum / pre-emergence action, Stellaria: 2000 g/ha
Protocol: Monocotyledonous and dicotyledonous test plants are sown in standard soil in plastic pots. Immediately after sowing, the test substances as aqueous suspensions (prepared with a 25% wettable powder (Example F3, b) in accordance with WO 97/34485) or as emulsions (prepared with a 25% emulsion concentrate (Example F1, c)) are sprayed on at a rate of 2 kg of a.i./ha or 250 g of a.i./ha (500 l of water/ha). The test plants are then grown in the greenhouse under optimal conditions. After a test period of 3 weeks, the experiment is evaluated with reference to a nine-step scale (1=complete damage, 9=no effect). Score figures of 1 to 4 (in particular 1 to 3) mean a good to very good herbicidal action.

[2] = test system: Monocotyledonous and dicotyledonous test plants; test: Post-emergence herbicidal action; format: in vivo; settings: evaluated after approximately 18 days; for Post-emergence action, Ipomoea / Post-emergence action, Lolium / Post-emergence action, Setaria / Post-emergence action, Sinapis / Post-emergence action, Solanum / Post-emergence action, Stellaria: 2000 g/ha, sprayed in 4- to 6-leaf stage, nine-step scale
Protocol: Monocotyledonous and dicotyledonous test plants are grown in the greenhouse in plastic pots containing standard soil, and, in the 4- to 6-leaf stage, sprayed with an aqueous suspension of the test substances of the formula I prepared with a 25% wettable powder (Example F3, b) in accordance with WO 97/34485) or with an emulsion of the test substances of the formula I prepared with a 25% emulsion concentrate (Example F1, c) in accordance with WO 97/34485), corresponding to a rate of 2 kg of a.i./ha or 250 g of a.i./ha (500 l of water/ha). The test plants are subsequently grown on in the greenhouse under optimal conditions. After a test period of approximately 18 days, the test is evaluated with reference to a nine-step scale (1=complete damage, 9=no effect). Score figures of 1 to 4 (in particular 1 to 3) mean a good to very good herbicidal action. In this test, the compounds of the formula I show a potent herbicidal action.

SMILES: COCc1nc(C(F)(F)F)ccc1C(=O)C1=C(O)CC(C(F)(F)F)CC1=O (stereo not shown) [Compound A8-B1064]
- pre-emergence action, Cyperus [1]: 2
- pre-emergence action, Ipomoea [1]: 4
- pre-emergence action, Setaria [1]: 3
- pre-emergence action, Sinapis [1]: 2
- pre-emergence action, Solanum [1]: 1
- pre-emergence action, Stellaria [1]: 3
- Post-emergence action, Ipomoea [2]: 2
- Post-emergence action, Lolium [2]: 4
- Post-emergence action, Setaria [2]: 2
- Post-emergence action, Sinapis [2]: 1
- Post-emergence action, Solanum [2]: 1
- Post-emergence action, Stellaria [2]: 2

SMILES: Cc1nc(C(F)(F)F)ccc1C(=O)C1=C(O)C(C)CC(C)C1=O (stereo not drawn) [A2-B46 (trans)]
- pre-emergence action, Cyperus [1]: 1
- pre-emergence action, Ipomoea [1]: 2
- pre-emergence action, Setaria [1]: 1
- pre-emergence action, Sinapis [1]: 2
- pre-emergence action, Solanum [1]: 1
- pre-emergence action, Stellaria [1]: 2
- Post-emergence action, Ipomoea [2]: 1
- Post-emergence action, Lolium [2]: 2
- Post-emergence action, Setaria [2]: 2
- Post-emergence action, Sinapis [2]: 1
- Post-emergence action, Solanum [2]: 1
- Post-emergence action, Stellaria [2]: 2

SMILES: CCOC(=O)C1(C)CCC(=O)C(C(=O)c2ccc(C(F)(F)F)nc2C)=C1O (stereo not shown) [Compound A2-B35]
- pre-emergence action, Cyperus [1]: 2
- pre-emergence action, Ipomoea [1]: 4
- pre-emergence action, Setaria [1]: 2
- pre-emergence action, Sinapis [1]: 2
- pre-emergence action, Solanum [1]: 2
- pre-emergence action, Stellaria [1]: 2
- Post-emergence action, Ipomoea [2]: 1
- Post-emergence action, Lolium [2]: 3
- Post-emergence action, Setaria [2]: 2
- Post-emergence action, Sinapis [2]: 1
- Post-emergence action, Solanum [2]: 1
- Post-emergence action, Stellaria [2]: 2

SMILES: CSC1(C)CC(C)C(=O)C(C(=O)c2ccc(C(F)(F)F)nc2C)=C1O (stereo not shown) [Compound A2-B73]
- pre-emergence action, Cyperus [1]: 3
- pre-emergence action, Ipomoea [1]: 4
- pre-emergence action, Setaria [1]: 2
- pre-emergence action, Sinapis [1]: 2
- pre-emergence action, Solanum [1]: 2
- pre-emergence action, Stellaria [1]: 2
- Post-emergence action, Ipomoea [2]: 1
- Post-emergence action, Lolium [2]: 3
- Post-emergence action, Setaria [2]: 2
- Post-emergence action, Sinapis [2]: 1
- Post-emergence action, Solanum [2]: 1
- Post-emergence action, Stellaria [2]: 2

SMILES: COCc1nc(C(F)(F)F)ccc1C(=O)C1=C([S+]([O-])c2ccccc2)CCCC1=O (stereo not shown) [Compound A8-B1103]
- pre-emergence action, Cyperus [1]: 1
- pre-emergence action, Ipomoea [1]: 3
- pre-emergence action, Setaria [1]: 2
- pre-emergence action, Sinapis [1]: 1
- pre-emergence action, Solanum [1]: 1
- pre-emergence action, Stellaria [1]: 2
- Post-emergence action, Ipomoea [2]: 1
- Post-emergence action, Lolium [2]: 4
- Post-emergence action, Setaria [2]: 1
- Post-emergence action, Sinapis [2]: 1
- Post-emergence action, Solanum [2]: 1
- Post-emergence action, Stellaria [2]: 1

SMILES: CCC1(C)CC(C)(C)C(=O)C(C(=O)c2ccc(C(F)(F)F)nc2C)=C1O (stereo not shown) [Compound A2-B91]
- pre-emergence action, Cyperus [1]: 1
- pre-emergence action, Ipomoea [1]: 2
- pre-emergence action, Setaria [1]: 1
- pre-emergence action, Sinapis [1]: 2
- pre-emergence action, Solanum [1]: 1
- pre-emergence action, Stellaria [1]: 2
- Post-emergence action, Ipomoea [2]: 1
- Post-emergence action, Lolium [2]: 2
- Post-emergence action, Setaria [2]: 2
- Post-emergence action, Sinapis [2]: 1
- Post-emergence action, Solanum [2]: 2
- Post-emergence action, Stellaria [2]: 2

SMILES: CCN(CC)CC.Cc1nc(C(F)(F)F)ccc1C(=O)C1=C(O)CCCC1=O [Compound A2-B1100]
- pre-emergence action, Cyperus [1]: 1
- pre-emergence action, Ipomoea [1]: 3
- pre-emergence action, Setaria [1]: 1
- pre-emergence action, Sinapis [1]: 2
- pre-emergence action, Solanum [1]: 1
- pre-emergence action, Stellaria [1]: 2
- Post-emergence action, Ipomoea [2]: 2
- Post-emergence action, Lolium [2]: 2
- Post-emergence action, Setaria [2]: 3
- Post-emergence action, Sinapis [2]: 1
- Post-emergence action, Solanum [2]: 1
- Post-emergence action, Stellaria [2]: 2

SMILES: CCC1(C)CC(C)C(=O)C(C(=O)c2ccc(C(F)(F)F)nc2C)=C1O (stereo not shown) [Compound A2-B69]
- pre-emergence action, Cyperus [1]: 1
- pre-emergence action, Ipomoea [1]: 4
- pre-emergence action, Setaria [1]: 2
- pre-emergence action, Sinapis [1]: 2
- pre-emergence action, Solanum [1]: 1
- pre-emergence action, Stellaria [1]: 1
- Post-emergence action, Ipomoea [2]: 1
- Post-emergence action, Lolium [2]: 2
- Post-emergence action, Setaria [2]: 2
- Post-emergence action, Sinapis [2]: 1
- Post-emergence action, Solanum [2]: 2
- Post-emergence action, Stellaria [2]: 2

SMILES: COC1(C)CCC(=O)C(C(=O)c2ccc(C(F)(F)F)nc2C)=C1O (stereo not shown) [Compound A2-B33]
- pre-emergence action, Cyperus [1]: 1
- pre-emergence action, Ipomoea [1]: 3
- pre-emergence action, Setaria [1]: 2
- pre-emergence action, Sinapis [1]: 2
- pre-emergence action, Solanum [1]: 1
- pre-emergence action, Stellaria [1]: 3
- Post-emergence action, Ipomoea [2]: 2
- Post-emergence action, Lolium [2]: 4
- Post-emergence action, Setaria [2]: 2
- Post-emergence action, Sinapis [2]: 1
- Post-emergence action, Solanum [2]: 2
- Post-emergence action, Stellaria [2]: 2

SMILES: Cc1nc(C(F)(F)F)ccc1C(=O)C1=C(O)C(C)CC(C)C1=O (stereo not drawn) [A2-B46 (cis)]
- pre-emergence action, Cyperus [1]: 1
- pre-emergence action, Ipomoea [1]: 2
- pre-emergence action, Setaria [1]: 1
- pre-emergence action, Sinapis [1]: 2
- pre-emergence action, Solanum [1]: 1
- pre-emergence action, Stellaria [1]: 2
- Post-emergence action, Ipomoea [2]: 1
- Post-emergence action, Lolium [2]: 2
- Post-emergence action, Setaria [2]: 3
- Post-emergence action, Sinapis [2]: 1
- Post-emergence action, Solanum [2]: 2
- Post-emergence action, Stellaria [2]: 2

SMILES: Cc1c(C(=O)C2=C(O)C(C)(C)C(=O)C(C)(C)C2=O)ccc(C(F)(F)F)[n+]1[O-] [Compound A1210-B354]
- pre-emergence action, Cyperus [1]: 2
- pre-emergence action, Ipomoea [1]: 3
- pre-emergence action, Setaria [1]: 2
- pre-emergence action, Sinapis [1]: 1
- pre-emergence action, Solanum [1]: 1
- pre-emergence action, Stellaria [1]: 2
- Post-emergence action, Ipomoea [2]: 2
- Post-emergence action, Lolium [2]: 2
- Post-emergence action, Setaria [2]: 2
- Post-emergence action, Sinapis [2]: 1
- Post-emergence action, Solanum [2]: 1
- Post-emergence action, Stellaria [2]: 2

SMILES: Cc1nc(C(F)(F)F)ccc1C(=O)C1=C(O)C(C)(C)CC2(CC2)C1=O [Compound A2-C24]
- pre-emergence action, Cyperus [1]: 1
- pre-emergence action, Ipomoea [1]: 2
- pre-emergence action, Setaria [1]: 1
- pre-emergence action, Sinapis [1]: 1
- pre-emergence action, Solanum [1]: 1
- pre-emergence action, Stellaria [1]: 2
- Post-emergence action, Ipomoea [2]: 1
- Post-emergence action, Lolium [2]: 1
- Post-emergence action, Setaria [2]: 1
- Post-emergence action, Sinapis [2]: 1
- Post-emergence action, Solanum [2]: 1
- Post-emergence action, Stellaria [2]: 1

SMILES: Cc1nc(C(F)(F)F)ccc1C(=O)C1=C(O)C(C)CC2(CCC2)C1=O (stereo not shown) [Compound A2-C152]
- pre-emergence action, Cyperus [1]: 1
- pre-emergence action, Ipomoea [1]: 1
- pre-emergence action, Setaria [1]: 2
- pre-emergence action, Sinapis [1]: 2
- pre-emergence action, Solanum [1]: 1
- pre-emergence action, Stellaria [1]: 2
- Post-emergence action, Ipomoea [2]: 2
- Post-emergence action, Lolium [2]: 2
- Post-emergence action, Setaria [2]: 3
- Post-emergence action, Sinapis [2]: 1
- Post-emergence action, Solanum [2]: 2
- Post-emergence action, Stellaria [2]: 2

SMILES: COCc1nc(C(F)(F)F)ccc1C(=O)C1=C(O)C(C)(C)C(C)CC1=O (stereo not shown) [Compound A8-B156]
- Pre-emergence action, Abutilon ([1]; Abutilon, 250 g/ha): 3
- Pre-emergence action, Amaranthus ([1]; Amaranthus, 250 g/ha): 4
- Pre-emergence action, Chenop. ([1]; Chenop., 250 g/ha): 2
- Pre-emergence action, Digitaria ([1]; Digitaria, 250 g/ha): 3
- Pre-emergence action, Echino. ([1]; Echino., 250 g/ha): 3
- Pre-emergence action, Panicum ([1]; Panicum, 250 g/ha): 3
- Post-emergence action: Abutilon (score, nine-step scale) ([2]; Abutilon, 250 g/ha, sprayed at 4- to 6-leaf stage): 1
- Post-emergence action: Chenop. (score, nine-step scale) ([2]; Chenop., 250 g/ha, sprayed at 4- to 6-leaf stage): 1
- Post-emergence action: Digitaria (score, nine-step scale) ([2]; Digitaria, 250 g/ha, sprayed at 4- to 6-leaf stage): 3
- Post-emergence action: Echino. (score, nine-step scale) ([2]; Echino., 250 g/ha, sprayed at 4- to 6-leaf stage): 3
- Post-emergence action: Ipopur. (score, nine-step scale) ([2]; Ipopur., 250 g/ha, sprayed at 4- to 6-leaf stage): 2
- Post-emergence action: Panicum (score, nine-step scale) ([2]; Panicum, 250 g/ha, sprayed at 4- to 6-leaf stage): 2
- Post-emergence action: Xanth. (score, nine-step scale) ([2]; Xanth., 250 g/ha, sprayed at 4- to 6-leaf stage): 2
